# According to patent publication US20050239715A1, “Inhibition of allergic contact dermatitis by N-L-alpha-aspartyl-L-phenylalanine 1-methyl ester” (priority 2004, published 2005):
# Residues, ends and D or L forms follow the SMILES beside them.
# Columns and labels:
# [1] = tested on: allergic contact dermatitis, skin previously exposed to urushiol; assay: Example 1: treatment of allergic contact dermatitis with APM in a cream base; assay type: in vivo; conditions: thin film of APM in cream base, after sixty (60) minutes
# Description: To an area of skin previously exposed to urushiol is applied a thin film of APM in a cream base. […] Further treatment may include washing the affected area to remove and displace urushiol dissolved in the applied lotion and followed by reapplication of APM containing cream or lotion.
# [2] = cited from earlier work
# [3] = tested on: capsaicin taste receptor (heat and irritation of the tongue); assay: Oral application of APM with capsaicin-containing red pepper sauce; assay type: in vivo
# Description: The variability in observable results in preventing dermatitis or topical irritation appear related to the amount of APM that is applied, the time and order of the therapeutic application, and the presence of receptors to which either the irritant oil or APM may bind.
# [4] = tested on: Urushiol-Induced Dermatitis on Human Skin; assay: Example 2: prevention of urushiol-induced dermatitis on human skin; assay type: in vivo; conditions: thin film of APM suspended in petroleum cream base applied before exposure
# Description: To an area of skin which may be exposed to urushiol is applied a thin film of APM suspended in a petroleum cream base.
# [5] = tested on: human rash secondary to urushiol exposure; assay: Example 4: treatment of rash caused by urushiol; assay type: in vivo
# Method: A human rash, with itching, in progress secondary to contact with an animal known to have had significant exposure to urushiol substances was arrested in 8 hours with 2 applications of aspartame in a Vaseline Intensive Care Lotion base (about 1.2 to 10 mg/ml). The itching ceased, and discomfort and irritation resolved within 8 hours.
# [6] = tested on: capsaicin burning of the eye; assay: Example 7: capsaicin burning of the eye; assay type: in vivo, human; conditions: about 10 mg per 250 microliters in sterile saline applied to eye
# Method: A kitchen worker is exposed to capsaicin oil from peppers during cooking preparation, the oil is transferred to their hands and then, by their hands, to their eyes, resulting in a burning sensation and pain. […] The application may be repeated in 15 min because tearing may dilute or wash away the active ingredients.
# [7] = tested on: capsaicin burning and pain of mucosa; assay: Example 8: APM after inadvertent mucosal contact with capsaicin cream; assay type: in vivo, human; conditions: preparation of 38 mg APM per 5 ml applied to affected area
# Method: A patient is treated for arthritis with a capsaicin cream applied twice daily to the affected joint. Capsaicin is absorbed by the transdermal tissue and then transported to joint area. After an appropriate interval, for instance 2-5 days, significant reduction in swelling, heat, redness, and pain is observed. However, the patient also inadvertently contacts his or her urethra, periurethra tissues, vaginal mucosa, rectal mucosa, eyes, or nose with the capsaicin cream, resulting in a sensation of burning and pain in the affected area.
# [8] = tested on: Urushiol-Induced Dermatitis on Human Skin; assay: Example 3: treatment and prevention of urushiol-induced dermatitis on human skin (Patient 1); assay type: in vivo; conditions: topical lotion 0.5 to 1 mg APM/ml, two to three times per day, also two packets Equal by mouth
# Method: The goats frequently consumed and were in contact with both poison sumac and poison ivy abundant in their enclosure without experiencing symptoms.
# A topical APM preparation was made by mixing 2 to 3 packets of Equal® brand sweetner (80-120 mg of APM) with approximately 170 ml (5.5 fluid ounces) of lotion containing Vaseline® Intensive Care® Water Resistant Moisturizing Lotion (Unilever United States, Inc.), resulting in a lotion with 0.5 to 1 mg APM/ml. Patient 1 had previously used the lotion base without effect. Patient 1 also took two packets of Equal® brand sweetener by mouth in response to a symptom of diarrhea, a condition known to be associated with urishiol.
# A soap and water scrub of the affected area was done one hour after application of the cream, and the affected area allowed to air dry.
# Additional affected areas were then discovered on Patient 1, and a lotion was prepared for Patient 1 to use on these areas as well as unaffected areas that could come in contact with poison ivy during their work. Patient 1 used additional topical APM preparation approximately two to three times per day.
smiles,measurement,setting,value
"COC(=O)[C@H](Cc1ccccc1)NC(=O)[C@@H](N)CC(=O)O [APM, N-L-alpha-aspartyl-L-phenylalanine 1-methyl ester] (H-Asp-Phe-OMe)",symptoms of allergic contact dermatitis,[1],significantly reduced
same,pH at which cyclisation with formation of diketopiperazine occurs in APM solutions,[2],greater than 5
same,perception of spiciness of red pepper sauce,[3]; APM applied orally before red pepper sauce,absence of recognition of the spicyness
same,APM response after long duration of exposure to capsaicin,[3]; long exposure with secondary effects,not as strong nor as quick
same,response when APM is applied after sensations of heat and irritation developed,"[3]; red pepper sauce applied to tongue first, APM after",manifested and recognized quickly
same,symptoms of allergic contact dermatitis,[4],either do not appear or are significantly reduced
same,time in which rash with itching was arrested,"[5]; 2 applications in Vaseline Intensive Care Lotion base, about 1.2 to 10 mg/ml",8 h
same,time in which itching ceased and discomfort and irritation resolved,"[5]; 2 applications in lotion base, about 1.2 to 10 mg/ml",≤ 8 h
same,state of rash overnight,[5]; overnight after 2 applications in lotion base,the rash was gone
same,burning sensation of the eye,[6],alleviated
same,burning and pain of affected area,[7],reducing or eliminating the burning and pain
same,rash or reaction observed on the day after application,[8],no rash or reaction had occurred
